Test results as given in patent publication US20180207177A1, “TREATMENT OF TRIPLE NEGATIVE BREAST CANCER UTILIZING ANDROST-5-ENE-3b,17b-DIOL (b-AED), ANDROST-5-ENE-3b,7b,17b-TRIOL (b-AET) AND ESTRADIOL (E2)” (Government of the United States as Represented by the …, priority 2017, published 2018).

Key:
293T cells = test: Biological function (phenotype, mobile cells) in 293T cells; type: cell-based, human
Protocol: A non-toxic vehicle for administration of androstene hormones according to embodiments of the present invention was prepared from a first solution and a second solution. The first solution, comprising liposomal formulation, was placed in PEG 300 to a concentration of 5% and heated in a sonicating water bath to about 45° C. The second solution, comprising a selected hormone (one or more of 5Δ-androsten-3β, 17α-diol, 5Δ-androsten-3β, 17β-diol, or 5Δ-androsten-3β,7β,17β-triol), was placed in PEG 300 and heated in a sonicating water bath to about 45° C. The first and second solutions were then combine and stirred until dissolved.
Biological function was tested in 293T cells, which is a human embryonic cell line transformed with Large T antigen […] SV40. This hypotriploid (polyploid) cell line is particularly useful in such transformation studies and has very distinct phenotypes when grown. All androstene hormone treatment applications were at concentrations of 25 μM.

[1] = system: MDA-MB-231 breast cancer cell; test: Cell death in MDA-MB-231 breast cancer cell cultures; type: cell-based; details: 25 μM β-AED, 25 μM β-AET, 5 nM E2; PEG 300/LIPOFECTAMINE vehicle
Protocol: (§1) Hormone dependent, noninvasive, epithelial phenotype (ER/PR positive MCF-7 breast cancer cells) and hormone independent, invasive, mesenchymal phenotype (ER/PR negative MDA-MB-231 breast cancer cell) cell suspensions were acquired and prepared in complete medium (DMEM/F12, 10% FBS, 1% penicillin/streptomycin (Gibco)). Cellular concentration was adjusted to 2×10^5 cells/mL.
(§2) Androstene hormone solutions according to embodiments of the present invention were prepared from a first solution and a second solution. For the first solution, 3.0 mg of β-AED or β-AET was added to warm PEG 300 to prepare 50 mM stock. For the second solution, 10 μL of LIPOFECTAMINE (3:1 DOSPA:DOPE) was introduced to 100 μL of PEG 300, mixed, and incubated in a water bath at 42° C. for 30 min. The first and second solutions were then mixed in a sonicator water bath at 42° C. for 1 hr. The final concentration was 50 mM β-AED (or AET, as used).
(§3) A β-estradiol solution was also prepared by adding 2.7 mg of β-estradiol to 200 μL warmed PEG 300 with LIPOFECTAMINE and then further diluted 1:1000 with PEG-300. The final concentration was 50 μM.
A diluted β-AED (or β-AET) solution was prepared with complete medium at a final concentration of 50 μM (1:1000 dilute of 50 mM). Likewise, a diluted β-E2 solution was prepared with complete medium at a final concentration of 10 nM (1:5000 dilute of 50 μM). […]

[2] = system: MCF-7 breast cancer cells; test: Cell death and growth in MCF-7 breast cancer cell cultures; type: cell-based; details: for MCF7 Cell Death Amount: 25 μM β-AED, 25 μM β-AET, PEG 300/LIPOFECTAMINE vehicle; for cell growth / cell density (microscopic photograph): compared to vehicle FIG. 14
Protocol: as §1, §2, §3
A diluted β-AED (or β-AET) solution was prepared with complete medium at a final concentration of 50 μM (1:1000 dilute of 50 mM). Likewise, a diluted β-E2 solution was prepared with complete medium at a final concentration of 10 nM (1:5000 dilute of 50 μM).
Using a 24-well plate, mixtures of 0.5 mL of cells per well with 0.5 mL of medium diluted hormone vehicle. Cell cultures were maintained at 90% humidity, 7% CO2, and 37° C.

[3] = vehicle PEG 300, androstene hormone 25 μM
[4] = MCF-7 grown for 5 days, 25 μM androstene, 5 nM E2

Structure (SMILES)	cell islands (photograph) (293T cells; [3])	mobile cells / cell processes (photograph) (293T cells; [3])	mobile cells / mobile elements and processes (photograph) (293T cells; vehicle PEG 300 and LIPOFECTAMINE, β-AED 25 μM, E2 5 nM)	MDA-MB-231 Cell Death Amount [1]	MCF7 Cell Death Amount ([2]; 5 nM E2)	particles / cell bodies produced by cells in response to treatment [2, 4]	cell growth / cell density (microscopic photograph) [2, 4]	Additional Observation ([2]; cell line not given, particles shown for MCF-7 in FIG. 15)
C[C@]12CC[C@H]3[C@@H](CC=C4C[C@@H](O)CC[C@@]43C)[C@@H]1CC[C@@H]2O [β-AED, androst-5-ene-3β,17β-diol]	cell islands are larger	significant reduction in mobile cells	drastic decrease in, or morphological change, in mobile elements	Not observed	Not observed	small particles	not as heath and there are areas of decreased density	Cell particles observed
C[C@]12CC[C@H]3[C@@H]([C@@H](O)C=C4C[C@@H](O)CC[C@@]43C)[C@@H]1CC[C@@H]2O [β-AET, 5-androstene-3β,7β,17β-triol]				Not observed	Not observed		thick and similar to the cell growth of FIG. 14	
